Reference: patent US4396607A, “Muramyl peptide derivatives and pharmaceutical compositions” (priority 1978, dated 1983)

Experiments:
[1] = Toxicity (lethal dose 50) by parenteral administration in the adrenalectomised mouse; type: in vivo, mice
Description: The toxicity of the products according to the invention was investigated by parenteral administration in mice. It was observed that the toxic doses were of an order of magnitude very much higher than that of the doses at which these products manifest their activity. Thus the lethal dose 50 of the products according to the invention tested was higher than 5 mg/kg of animal in the adrenalectomised mouse, whose sensitivity to endotoxins is well-known.

[2] = system: bovine serum albumin (BSA); assay: Adjuvant character in the aqueous phase (antibody titer by passive hemagglutination); type: in vivo, Swiss mice; settings: mice, 0.5 mg BSA with 0.1 mg tested substance SC in isotonic saline, booster day 30, titer at the 36th day
Description: Groups of 8 Swiss mice aged two months received, by sub-cutaneous injection (SC), 0.5 mg of antigen constituted by bovine serum albumin (BSA) with 0.1 mg or without the tested substance in an isotonic saline solution. This high dose of antigen, because it is situated at the limit of the paralyzing dose with respect to the immunitary response, results, for this reason, in a weak or zero response to the antigen only in the controls: It constitutes therefore a severe criterien to establish the activity of an adjuvant substance. Thirty days later, the mice received, by the same administrative route, a booster containing 0.1 mg of the same antigen.
The antibody level was determined, six days after the booster, by passive hemagglutination using sheep's red blood corpuscles treated with formalin and covered with the antigen studied according to the method described by A. A. HIRATA and M. W. BRANDISS (J. Immunol., 100, 641-648, 1968).
The antibody titer, represented by the maximum serum dilution agglutinating a given amount of sheep corpuscles, reaches a maximum at the 36th day and is established in the following manner: […]

Klebsiella pneumoniae = assay: Anti-infectious activity with respect to Klebsiella; type: in vivo; settings: mice, i.v. treatment 24h before 2 × 10^4 bacteria i.m.
Description: The survival of groups of inoculated mice under the above conditions and treated by means of the products according to the invention was followed.
The infecting dose was 2.10^4 Klebsiella; it was administered by the intramuscular route.
The administration of the tested product was carried out by the intravenous route in 0.2 ml of apyrogenic physiological solution, the controls receiving the solution alone. It was carried out 24 hours before the inoculation.
The percentage protection indicated is a difference of the percentages of survivors of the treated group with respect to the control group.

Ovalbumin = assay: Adjuvant character in emulsion (delayed hypersensitivity and antibodies); type: in vivo, Hartley guinea pigs; settings: guinea pigs, 50 μg in AlF emulsion with 1 mg ovalbumin; for Log2 of the hemagglutinating titer: serum day 21; for HSR (diameter of the delayed hypersensitivity reaction): skin test day 18, read 48 hours later
Description: The tests were carried out on batches of 6 male Hartley guinea pigs of 350 g. The administration was done by intradermal injection into the plantar pad of each of the rear paws. Ovalbumin (constituting the antigen) in the amount of 1 mg is prepared in 0.1 ml of an emulsion of saline isotonic solution, in any oily phase constituted either by the Freund imcomplete adjuvant (FIA), or by the complete adjuvant (FCA) formed by the FIA to which is added 0.1 mg of whole Mycobacterium smegmatis cells. The compound according to the invention was administered in the amount of 0.05 mg added in the emulsion containing the FIA.
Eighteen days after this immunization, possible delayed hypersensitivity reactions to the antigen were sought by injecting by the intradermal route 0.01 mg of ovalbumin in the side of the animals, and 48 hours later, the reaction of the point of injection was observed. The diameter in millimeters of the reaction thus caused was measured.
Twenty-one days after the injection, the animals were bled. […]

[3] = system: Limulus amoebocyte lysate; assay: Limulus test (endotoxic type activity); settings: gel formation after 20 minutes at 37° C.
Description: For this purpose, 0.1 ml of the Limulus amoebocyte lysate preparation (marketed by the MALLINCKRODT Company, at St. LOUIS, U.S.A.) was mixed with an equal volume of the tested product at various concentrations in solution in apyrogenic distilled water. The vessels used were also made apyrogenic by dry heating in the oven, at 180° C., for 2 hours.
After incubating the mixture for 20 minutes at 37° C. in tubes, the formation of gel characteristics of the presence of endotoxin was estimated.

Listeria monocytogenes = assay: Anti-infectious activity with respect to Listeria; type: in vivo; settings: mice, i.v., 1 day before infection

| Compound | lethal dose 50 [1] | Log2 hemagglutinating titer [2] | % of protection (Klebsiella pneumoniae; dose per mouse 100) [%] | Number of survivors at day 3 (Klebsiella pneumoniae; dose per mouse 100) | Number of survivors at day 5 (Klebsiella pneumoniae; dose per mouse 100) | Number of survivors at day 8 (Klebsiella pneumoniae; dose per mouse 100) | Log2 of the hemagglutinating titer (Ovalbumin) | HSR (diameter of the delayed hypersensitivity reaction) (Ovalbumin) [millimeters] | other results |
| --- | --- | --- | --- | --- | --- | --- | --- | --- | --- |
| CC(=O)N[C@H]1C(O)O[C@H](CO)[C@@H](O)[C@@H]1O[C@H](C)C(=O)N[C@@H](C)C(=O)N[C@H](CCC(=O)N[C@@H](C)C(=O)OCc1ccccc1)C(N)=O (stereo partly drawn) [MDP--L--Ala--benzyl--ester, Benzyl ester of N-acetyl-muramyl-L-alanyl-D-isoglutaminyl-L-alanine] | higher than 5 mg/kg | 7.47 ± 0.89 | 46 | 24 | 14 | 14 | 12.31 ± 0.82 | 12.5 ± 3.5 |  |
| CCCCOC(=O)[C@H](C)NC(=O)CC[C@@H](NC(=O)[C@H](C)NC(=O)[C@@H](C)O[C@H]1[C@H](O)[C@@H](CO)OC(O)[C@@H]1NC(C)=O)C(N)=O (stereo partly drawn) [MDP--L--Ala--butyl--ester, n-butyl ester of N-acetyl-muramyl-L-alanyl-D-isoglutaminyl-L-alanine] |  | 10.31 ± 0.49 | 54 | 23 | 18 | 17 | 13.31 ± 0.52 | 18 ± 2 |  |
| CCCCCCCCCCNC(=O)[C@H](C)NC(=O)CC[C@@H](NC(=O)[C@H](C)NC(=O)[C@@H](C)O[C@H]1[C@H](O)[C@@H](CO)OC(O)[C@@H]1NC(C)=O)C(N)=O (stereo partly drawn) [MDP--L--Ala--decyl--amide, Decylamide of N-acetyl-muramyl-L-alanyl-D-isoglutamine-L-alanine] | higher than 5 mg/kg | 8.64 ± 0.95 | 50 | 21 | 17 | 16 |  |  | Limulus test result (concentration of the tested product) [3]: 100 µg/mL |
| CCCCCCCCCCOC(=O)[C@H](C)NC(=O)CC[C@@H](NC(=O)[C@H](C)NC(=O)[C@@H](C)O[C@H]1[C@H](O)[C@@H](CO)OC(O)[C@@H]1NC(C)=O)C(N)=O (stereo partly drawn) [MDP--L--Ala--decyl--ester, Decyl ester of N-acetyl-muramyl-L-alanyl-D-isoglutaminyl-L-alanine] |  | 6.23 ± 1.23 | 44 | 30 | 22 | 22 |  |  | Limulus test result (concentration of the tested product) [3]: 100 µg/mL; % of protection (Listeria monocytogenes; 10 μg per mouse): 50%; Number of surviving animals at day 5 (Listeria monocytogenes; 10 μg per mouse): 7; Number of surviving animals at day 10 (Listeria monocytogenes; 10 μg per mouse): 5; % of protection (Listeria monocytogenes; 100 μg per mouse): 38%; Number of surviving animals at day 5 (Listeria monocytogenes; 100 μg per mouse): 19; Number of surviving animals at day 10 (Listeria monocytogenes; 100 μg per mouse): 11; % of protection (Listeria monocytogenes; 300 μg per mouse): 23%; Number of surviving animals at day 5 (Listeria monocytogenes; 300 μg per mouse): 11; Number of surviving animals at day 10 (Listeria monocytogenes; 300 μg per mouse): 5 |
| CCCCCCCCCCCCCCCOC(=O)[C@H](C)NC(=O)CC[C@@H](NC(=O)[C@H](C)NC(=O)[C@@H](C)O[C@H]1[C@H](O)[C@@H](CO)OC(O)[C@@H]1NC(C)=O)C(N)=O (stereo partly drawn) [MDP--L--Ala--penta--decyl--ester, Pentadecyl ester of N-acetyl-muramyl-L-alanyl-D-isoglutaminyl-L-alanine] |  | 8.39 ± 0.89 | 50 | 24 | 16 | 15 | 10.97 ± 1.04 | 5 |  |
| CCCCCCCCCCOC(=O)[C@H](CCCCN)NC(=O)CC[C@@H](NC(=O)[C@H](C)NC(=O)[C@@H](C)O[C@H]1[C@H](O)[C@@H](CO)OC(O)[C@@H]1NC(C)=O)C(N)=O (stereo partly drawn) [MDP--L--Lys--decyl--ester, Decyl ester of N-acetyl-muramyl-L-alanyl-D-isoglutaminyl-L-lysine] | higher than 5 mg/kg | 9.64 ± 0.70 | 71 | 22 | 20 | 20 |  |  |  |
| CCCCCCCCCCOC(=O)CC[C@@H](NC(=O)[C@H](C)NC(=O)[C@@H](C)O[C@H]1[C@H](O)[C@@H](CO)OC(O)[C@@H]1NC(C)=O)C(N)=O (stereo partly drawn) [MDP--decyl--ester, Decyl ester of N-acetyl-muramyl-L-alanyl-D-isoglutamine] | higher than 5 mg/kg | 8.64 ± 1.31 | 75 | 24 | 21 | 21 |  |  | Number of survivors at day 3 (Klebsiella pneumoniae; dose per mouse 10): 1; Number of survivors at day 5 (Klebsiella pneumoniae; dose per mouse 10): 0; Number of survivors at day 8 (Klebsiella pneumoniae; dose per mouse 10): 0 |
| CCCCOC(=O)CC[C@@H](NC(=O)[C@H](C)NC(=O)[C@@H](C)O[C@H]1[C@H](O)[C@@H](CO)OC(O)[C@@H]1NC(C)=O)C(=O)OC (stereo partly drawn) [MDPA(butyl--ester)OCH3, α-methyl, γ-n-butyl N-acetyl-muramyl-L-alanyl-D-glutamic diester] |  |  | 38 | 12 | 11 | 9 |  |  |  |
| CCCCCCCCCCOC(=O)CC[C@@H](NC(=O)[C@H](C)NC(=O)[C@@H](C)O[C@H]1[C@H](O)[C@@H](CO)OC(O)[C@@H]1NC(C)=O)C(=O)OC (stereo partly drawn) [MDPA(decyl--ester)OCH3, α-methyl, γ-decyl N-acetyl-muramyl-L-alanyl-D-glutamic diester] |  |  | 44 | 13 | 11 | 10 |  |  |  |
